How the values were obtained:
[1] = Suspension equilibration of compound 1 fumarate at 20 and 40° C.; conditions: 10 vol total
Procedure: Amorphous compound 1 fumarate was subjected to this technique at ambient temperature (20° C.) and at elevated temperature (40° C.), in a diverse range of solvents.
Amorphous compound 1 fumarate underwent suspension equilibration in 19 single solvents at two different temperature set points (20 and 40° C.). The products were isolated by centrifugation and analysed wet by XRPD. After drying, the samples were reanalyzed.
At 20° C., dissolution or gumming was initially observed in the presence of most solvents; after several days, five of the gums had mobilised to give stable suspensions (refer to entries, Table 61). The products were isolated via centrifugation and the wet pellets were analysed by XRPD, oven dried and reanalysed by XRPD, TGA, DSC and ^1H NMR.
The companion screen performed at 40° C., yielded no hits. Consequently, the screen was repeated in the presence of an appropriate polarity modifier (either heptane or tBME), to ensure activity of the solvent was maintained while generating stable suspensions from the onset (refer to Table 62).
Separate portions of compound 1 (ca 50 mg, 1.0 wt.) were charged to separate vessels. The appropriate solvents (e.g. 250 μl, 5.0 vol), as described in Table and Table were charged to the vessels and the mixtures were stirred for several days at their relevant temperatures e.g. 20 to 40° C. After this time the products were cooled, isolated by centrifugation, analyzed as wet pellet by XRPD and dried under reduced pressure at 40° C. and re-analyzed by XRPD and companion analyses for evidence of alternative crystalline forms (FIGS. 74-77).

[2] = Heat-up/cool down (HUCD) crystallization of compound 1 Fumarate in different solvents
[3] = Thermocycling of compound 1 Fumarate; conditions: computed by software from the powder pattern
Procedure: Thermocycling in different solvents can promote the formation of alternative polymorphic forms. compound 1·Fumarate was heated and cooled between 20° C. and 75% of the relevant solvent b.p. at 0.5° C./minute, for 5 consecutive cycles; a 10-minute dwell was incorporated at each inflection (refer to Table 63). Thermocycling is ripening technique that encourages particle size enlargement and promotes the evolution of the API into a stable phase. […] The products were analysed both wet and dry to determine if form changes had occurred, all products were consistent with monofumarate Form A (refer to FIGS. 16-19 and FIGS. 88-102).
Compound 1 Fumarate (75 mg, 1 wt) was weighed out in to 4 separate vials and the corresponding solvents (750 ul, 10 vol) from Table were charged.
The suspensions underwent constant amplitude thermocycling at ±0.5° C./min up to 75% of the relevant solvent b.p. and −0.5° C./min down to 20° C. The thermocycle was repeated 5 times (FIGS. 16-19 and 88-102).

[4] = Heptane (7 parts)/2-Methyl THF (3 part)
[5] = Heptane (7 parts)/2-Propanol (3 part)
[6] = Heptane (7 parts)/Acetone (3 part)
[7] = Heptane (7 parts)/Acetonitrile (3 part)
[8] = Heptane (7 parts)/Chlorobenzene (3 part)
[9] = Heptane (7 parts)/Dichloromethane (3 part)
[10] = Heptane (7 parts)/Ethanol (3 part)
[11] = Heptane (7 parts)/Ethyl acetate (3 part)
[12] = Heptane (7 parts)/Ethyl formate (3 part)
[13] = Heptane (7 parts)/Heptane (3 part)
[14] = Heptane (7 parts)/Isopropyl acetate (3 part)
[15] = Heptane (7 parts)/Methanol (3 part)
[16] = Heptane (7 parts)/Methyl acetate (3 part)
[17] = Heptane (7 parts)/Methylethyl ketone (3 part)
[18] = Heptane (7 parts)/Nitromethane (3 part)
[19] = Heptane (7 parts)/Tetrahydrofuran (3 part)
[20] = Heptane (7 parts)/Toluene (3 part)
[21] = Heptane (7 parts)/Water (3 part)
[22] = Heptane (7 parts)/tert-Butylmethyl ether (3 part)
[23] = thermocycling in MEK/Heptane (1 to 1)
[24] = thermocycling in Toluene 100.0%

For `COc1ccc2c(ccn2C[C@@H](C)[NH+](C)C)c1.O=C(O)/C=C/C(=O)O` [Compound 1 fumarate, (R)-1-(5-methoxy-1H-indol-1-yl)-N,N-dimethylpropan-2-amine fumarate], the “Observations (t = 0 @ 40° C.)” value [1, 4] was “Gum”, the “XRPD (post oven dried)” value [1, 4] was “Pattern #1” and the “XRPD (wet)” value [1, 4] was “Pattern #1”. The “Observations (t = 3 d) @ 40° C.)” value [1, 5] was “Suspension”, the “XRPD (post oven dried)” value [1, 5] was “Pattern #1” and the “XRPD (wet)” value [1, 5] was “Pattern #1”. The “Observations (t = 0 @ 40° C.)” value [1, 6] was “Gum”, the “Observations (t = 1 d) @ 40° C.)” value [1, 6] was “Gum” and the “Observations (t = 3 d) @ 40° C.)” value [1, 6] was “Gum/oil”. The “Observations (t = 7 d @ 40° C.)” value [1, 6] was “Gum”, the “XRPD (post oven dried)” value [1, 6] was “Pattern #1” and the “XRPD (wet)” value [1, 6] was “Pattern #1”. The “Observations (t = 0 @ 40° C.)” value [1, 7] was “Oil (biphasic)”, the “Observations (t = 1 d) @ 40° C.)” value [1, 7] was “Oil (biphasic)” and the “Observations (t = 3 d) @ 40° C.)” value [1, 7] was “Oil (biphasic)”. For the same molecule, the “Observations (t = 7 d @ 40° C.)” value [1, 7] was “Oil (biphasic)”, the “Observations (t = 0 @ 40° C.)” value [1, 8] was “Gum” and the “Observations (t = 1 d) @ 40° C.)” value [1, 8] was “Gum”. The “XRPD (post oven dried)” value [1, 8] was “Pattern #1”, the “XRPD (wet)” value [1, 8] was “Pattern #1” and the “XRPD (post oven dried)” value [1, 9] was “Pattern #1”. The “XRPD (wet)” value [1, 9] was “Pattern #1”, the “Observations (t = 3 d) @ 40° C.)” value [1, 10] was “Suspension” and the “XRPD (post oven dried)” value [1, 10] was “Pattern #1”. For the same molecule, the “XRPD (wet)” value [1, 10] was “Pattern #1”, the “Observations (t = 0 @ 40° C.)” value [1, 11] was “Gum” and the “Observations (t = 1 d) @ 40° C.)” value [1, 11] was “Gum”. The “Observations (t = 3 d) @ 40° C.)” value [1, 11] was “Gum”, the “Observations (t = 7 d @ 40° C.)” value [1, 11] was “Oil/gum” and the “Observations (t = 3 d) @ 40° C.)” value [1, 12] was “Gum”. For the same molecule, the “XRPD (post oven dried)” value [1, 12] was “Pattern #1”, the “XRPD (wet)” value [1, 12] was “Pattern #1” and the “Observations (t = 0 @ 40° C.)” value [1, 13] was “Gum”. The “Observations (t = 1 d) @ 40° C.)” value [1, 13] was “Gum”, the “XRPD (post oven dried)” value [1, 13] was “Pattern #1” and the “XRPD (wet)” value [1, 13] was “Pattern #1”. For the same molecule, the “Observations (t = 0 @ 40° C.)” value [1, 14] was “Gum”, the “XRPD (post oven dried)” value [1, 14] was “Pattern #1” and the “XRPD (wet)” value [1, 14] was “Pattern #1”. The “Observations (t = 0 @ 40° C.)” value [1, 15] was “Oil (biphasic)”, the “Observations (t = 1 d) @ 40° C.)” value [1, 15] was “Oil (biphasic)” and the “Observations (t = 3 d) @ 40° C.)” value [1, 15] was “Biphasic (oil)”. For the same molecule, the “Observations (t = 7 d @ 40° C.)” value [1, 15] was “Oil (biphasic)”, the “XRPD (post oven dried)” value [1, 15] was “Pattern #1” and the “XRPD (wet)” value [1, 15] was “Pattern #1”. For the same molecule, the “XRPD (post oven dried)” value [1, 16] was “Pattern #1”, the “XRPD (wet)” value [1, 16] was “Pattern #1” and the “Observations (t = 0 @ 40° C.)” value [1, 17] was “Gum”. The “XRPD (post oven dried)” value [1, 17] was “Pattern #1”, the “XRPD (wet)” value [1, 17] was “Pattern #1” and the “Observations (t = 0 @ 40° C.)” value [1, 18] was “Oil (biphasic)”. For the same molecule, the “Observations (t = 1 d) @ 40° C.)” value [1, 18] was “Oil (biphasic)”, the “Observations (t = 3 d) @ 40° C.)” value [1, 18] was “Oil (biphasic)” and the “Observations (t = 0 @ 40° C.)” value [1, 19] was “Gum”. The “XRPD (post oven dried)” value [1, 19] was “Pattern #1”, the “XRPD (wet)” value [1, 19] was “Pattern #1” and the “Observations (t = 0 @ 40° C.)” value [1, 20] was “Gum”. The “Observations (t = 1 d) @ 40° C.)” value [1, 20] was “Gum”, the “XRPD (post oven dried)” value [1, 20] was “Pattern #1” and the “XRPD (wet)” value [1, 20] was “Pattern #1”. For the same molecule, the “Observations (t = 0 @ 40° C.)” value [1, 21] was “Oil (biphasic)”, the “Observations (t = 1 d) @ 40° C.)” value [1, 21] was “Oil (biphasic)” and the “Observations (t = 3 d) @ 40° C.)” value [1, 21] was “Oil (biphasic)”. The “Observations (t = 7 d @ 40° C.)” value [1, 21] was “Oil (biphasic)”, the “Observations (t = 0 @ 40° C.)” value [1, 22] was “Gum” and the “Observations (t = 1 d) @ 40° C.)” value [1, 22] was “Gum”. The “Observations (t = 3 d) @ 40° C.)” value [1, 22] was “Gum”, the “Observations (t = 7 d @ 40° C.)” value [1, 22] was “Oil/gum” and the “Form XRPD (oven dried)” value ([2]; Heptane (5 vol) + Dichloromethane 160 μl) was “Pattern 1”. The “Form XRPD (oven dried)” value ([2]; Heptane (5 vol) + Dioxane 240 μl) was “Pattern 1”, the “Observations (t = 3 d @ 20° C.)” value ([2]; Heptane (5 vol) + Ethanol 180 μl) was “suspension” and the “Observations (t = 0 @ T = 20° C.)” value ([2]; Heptane (5 vol) + Methylethyl ketone 100 μl) was “suspension”. For the same molecule, the “Form XRPD (oven dried)” value ([2]; Heptane (5 vol) + tert-Butylmethyl ether 300 μl) was “Pattern 1”, the “Observations (t = 3 d @ 20° C.)” value ([2]; Water (5 vol) + Ethanol 80 μl) was “solution” and the “XRPD crystallinity (dry, %)” value [3, 23] was 83.2%. For the same molecule, the “XRPD crystallinity (wet, %)” value [3, 23] was 83.4%, the “XRPD crystallinity (dry, %)” value [3, 24] was 68.1% and the “XRPD crystallinity (wet, %)” value [3, 24] was 52.4%. The “XRPD crystallinity (dry, %)” value ([3]; thermocycling in iPAC 100.0%) was 82.7%, the “XRPD crystallinity (wet, %)” value ([3]; thermocycling in iPAC 100.0%) was 80.7% and the “XRPD crystallinity (dry, %)” value ([3]; thermocycling in tBME 100.0%) was 81.0%. The “XRPD crystallinity (wet, %)” value ([3]; thermocycling in tBME 100.0%) was 79.0%.
